Test results: US10206937B2, “Boronic acid derivatives and therapeutic uses thereof” (Qpex Biopharma, Inc., priority 2014, dated 2019)

Experiments:
NDM-1 [1] = molecular target: T1, NDM-1 (Klebsiella pneumoniae, UniProt C7C422); assay: Inhibition of purified class B carbapenemase NDM-1 (Ki, imipenem substrate); assay type: biochemical; settings: NDM-1, substrate imipenem; read-out: Ki NDM-1, Imipenem
[2] = molecular target: purified class A, C and D enzymes (Escherichia coli, UniProt Q9L5C7); assay type: biochemical; settings: purified CTX-M-14; nitrocefin reporter substrate
Sequence of purified class A, C and D enzymes (Escherichia coli, UniProt Q9L5C7) (Q9L5C7 entry or part of it): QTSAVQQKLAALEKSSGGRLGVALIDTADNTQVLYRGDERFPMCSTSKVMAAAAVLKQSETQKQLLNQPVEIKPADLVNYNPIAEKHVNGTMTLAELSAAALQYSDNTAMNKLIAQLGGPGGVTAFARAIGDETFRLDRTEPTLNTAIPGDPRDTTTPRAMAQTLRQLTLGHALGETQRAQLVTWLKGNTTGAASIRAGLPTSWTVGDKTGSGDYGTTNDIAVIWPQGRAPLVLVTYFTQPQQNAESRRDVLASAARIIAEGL

[3] = molecular target: T2, purified class A, C and D enzymes (UniProt Q9F663); assay type: biochemical; settings: read-out: Ki (KPC-2, NCF); purified KPC-2; nitrocefin reporter substrate
T2 construct: rows headed: Ki (KPC-2, NCF); other: purified KPC-2; nitrocefin reporter substrate

[4] = molecular target: purified class A, C and D enzymes (Enterobacter cloacae, UniProt P05364); assay type: biochemical; settings: purified P99/AmpC of ECL; nitrocefin reporter substrate
Sequence of purified class A, C and D enzymes (Enterobacter cloacae, UniProt P05364) (P05364 21-381): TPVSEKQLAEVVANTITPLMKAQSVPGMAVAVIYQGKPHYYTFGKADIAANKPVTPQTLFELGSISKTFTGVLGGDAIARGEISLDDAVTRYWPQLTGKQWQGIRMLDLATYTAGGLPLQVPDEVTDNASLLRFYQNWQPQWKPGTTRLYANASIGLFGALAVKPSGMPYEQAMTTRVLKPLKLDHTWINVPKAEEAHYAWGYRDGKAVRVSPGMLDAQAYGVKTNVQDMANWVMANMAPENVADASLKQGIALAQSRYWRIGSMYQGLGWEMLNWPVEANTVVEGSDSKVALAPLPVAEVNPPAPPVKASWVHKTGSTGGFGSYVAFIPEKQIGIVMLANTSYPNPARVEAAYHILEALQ

[5] = molecular target: T3, purified class A, C and D enzymes (UniProt P0AD64, L31Q/G234S/E235K, species not given); assay type: biochemical; settings: read-out: Ki (SHV-12, NCF); purified SHV-12; nitrocefin reporter substrate
T3 construct: Ki (SHV-12, NCF); other: purified SHV-12; nitrocefin reporter substrate
T3 sequence (P0AD64 1-286 L31Q/G234S/E235K): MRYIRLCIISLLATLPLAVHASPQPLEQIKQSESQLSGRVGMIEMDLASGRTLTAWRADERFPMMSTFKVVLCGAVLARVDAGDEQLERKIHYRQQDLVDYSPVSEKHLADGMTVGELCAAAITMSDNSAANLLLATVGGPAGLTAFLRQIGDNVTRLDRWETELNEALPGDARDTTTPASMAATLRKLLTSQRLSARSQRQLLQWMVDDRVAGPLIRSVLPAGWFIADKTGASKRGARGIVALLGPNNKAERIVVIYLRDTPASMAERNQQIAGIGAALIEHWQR

[6] = molecular target: T4, purified class A, C and D enzymes (UniProt Q6XEC0); assay type: biochemical; settings: read-out: Ki (OXA-48, NCF); purified OXA-48; nitrocefin reporter substrate
T4 construct: rows headed: Ki (OXA-48, NCF); other: purified OXA-48; nitrocefin reporter substrate

NDM-1 [7] = molecular target: T1, NDM-1; assay: biochemical; settings: cleavage of imipenem (100 uM) by NDM-1; read-out: Ki, Imipenem
VIM-1 = molecular target: T5, VIM-1 (Pseudomonas aeruginosa, UniProt A0A0F7KYQ8); assay: biochemical; settings: cleavage of nitrocefin (200 uM) by VIM-1 supernatant
T5 construct: made in house; host or cells: ECM6711 strain carrying pUCP24-VIM-1 plasmid; culture supernatant used unpurified

T1 sequence (C7C422 29-270, looked up, species assumed): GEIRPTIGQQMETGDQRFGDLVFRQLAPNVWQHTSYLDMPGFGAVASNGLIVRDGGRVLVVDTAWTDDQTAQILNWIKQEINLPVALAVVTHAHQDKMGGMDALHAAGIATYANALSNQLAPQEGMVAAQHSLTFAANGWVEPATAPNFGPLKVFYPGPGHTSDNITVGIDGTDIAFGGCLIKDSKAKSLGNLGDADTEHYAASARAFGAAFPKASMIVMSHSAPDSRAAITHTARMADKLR

SMILES	Ki (NDM-1 [1])	Ki (CTX-M-14, NCF) [2]	Ki [3]	Ki (P99/AmpC of ECL, NCF) [4]	Ki [5]	Ki [6]	Ki (NDM-1 [7])	IC50 (VIM-1)
COc1ccc2c(c1C(=O)O)OB(O)[C@@H](Sc1nnc(NCCCN)s1)C2 [Compound 100, (3R)-3-[[5-(3-aminopropylamino)-1,3,4-thiadiazol-2-yl]sulfanyl]-2-hydroxy-7-methoxy-3,4-dihydro-1,2-benzoxaborinine-8-carboxylic acid]	< 0.01 µM	X (Less than 0.1 μM)	0.1 to 1 µM	X (Less than 0.1 μM)	< 0.1 µM	< 0.1 µM	< 0.01 µM	< 1 µM
COc1ccc2c(c1C(=O)O)OB(O)[C@@H](Sc1nnc(NCCN3CCNCC3)s1)C2 [Compound 98, (3R)-2-hydroxy-7-methoxy-3-[[5-(2-piperazin-1-ylethylamino)-1,3,4-thiadiazol-2-yl]sulfanyl]-3,4-dihydro-1,2-benzoxaborinine-8-carboxylic acid]	0.01 to 0.1 µM	X (Less than 0.1 μM)	0.1 to 1 µM	Y (0.1 μM to 1 μM)	< 0.1 µM	< 0.1 µM	0.01 to 0.1 µM	< 1 µM
COc1ccc2c(c1C(=O)O)OB(O)[C@@H](Sc1nnc(OCCN)s1)C2 [Compound 117, (3R)-3-[[5-(2-aminoethoxy)-1,3,4-thiadiazol-2-yl]sulfanyl]-2-hydroxy-7-methoxy-3,4-dihydro-1,2-benzoxaborinine-8-carboxylic acid]	< 0.01 µM	X (Less than 0.1 μM)	0.1 to 1 µM	Y (0.1 μM to 1 μM)	< 0.1 µM	< 0.1 µM	< 0.01 µM	< 1 µM
COc1ccc2c(c1C(=O)O)OB(O)[C@@H](Sc1c[nH]nn1)C2 [Compound 39, (R)-3-(1H-1,2,3-triazol-4-ylthio)-2-hydroxy-7-methoxy-3,4-dihydro-2H-benzo[e][1,2]oxaborinine-8-carboxylic acid]	> 0.1 µM	X (Less than 0.1 μM)	< 0.1 µM	Y (0.1 μM to 1 μM)	< 0.1 µM	< 0.1 µM	> 0.1 µM	< 1 µM
CC(C)Oc1ccc2c(c1C(=O)O)OB(O)[C@@H](Sc1nncs1)C2 [Compound 85, (3R)-2-hydroxy-7-isopropoxy-3-(1,3,4-thiadiazol-2-ylsulfanyl)-3,4-dihydro-1,2-benzoxaborinine-8-carboxylic acid]	> 0.1 µM	X (Less than 0.1 μM)	0.1 to 1 µM	Y (0.1 μM to 1 μM)	< 0.1 µM	< 0.1 µM	> 0.1 µM	< 1 µM
Nc1nnc(S[C@H]2Cc3ccc(Cl)c(C(=O)O)c3OB2O)s1 [Compound 36, (R)-3-(5-amino-1,3,4-thiadiazol-2-ylthio)-7-chloro-2-hydroxy-3,4-dihydro-2H-benzo[e][1,2]oxaborinine-8-carboxylic acid]	0.01 to 0.1 µM	X (Less than 0.1 μM)	< 0.1 µM	Z (Greater than 1 μM)	< 0.1 µM	< 0.1 µM	0.01 to 0.1 µM	≥ 1 µM
O=C(O)c1c(OCCF)ccc2c1OB(O)[C@@H](Sc1nncs1)C2 [Compound 87, (3R)-7-(2-fluoroethoxy)-2-hydroxy-3-(1,3,4-thiadiazol-2-ylsulfanyl)-3,4-dihydro-1,2-benzoxaborinine-8-carboxylic acid]	0.01 to 0.1 µM	X (Less than 0.1 μM)	0.1 to 1 µM	Y (0.1 μM to 1 μM)	< 0.1 µM	< 0.1 µM	> 0.1 µM	< 1 µM
COc1c(Cl)cc2c(c1C(=O)O)OB(O)[C@@H](Sc1nnc(N)s1)C2 [Compound 42, (R)-3-(5-amino-1,3,4-thiadiazol-2-ylthio)-6-chloro-2-hydroxy-7-methoxy-3,4-dihydro-2H-benzo[e][1,2]oxaborinine-8-carboxylic acid]	< 0.01 µM	X (Less than 0.1 μM)	0.1 to 1 µM	Y (0.1 μM to 1 μM)	< 0.1 µM	< 0.1 µM	< 0.01 µM	< 1 µM
Cc1ccc2c(c1C(=O)O)OB(O)[C@@H](Sc1nnc(N)s1)C2 [Compound 31, (R)-3-(5-amino-1,3,4-thiadiazol-2-ylthio)-2-hydroxy-7-methyl-3,4-dihydro-2H-benzo[e][1,2]oxaborinine-8-carboxylic acid]	> 0.1 µM	X (Less than 0.1 μM)	0.1 to 1 µM	Y (0.1 μM to 1 μM)	< 0.1 µM	< 0.1 µM	> 0.1 µM	≥ 1 µM
Nc1nnc(S[C@H]2Cc3c(F)c(F)c(F)c(C(=O)O)c3OB2O)s1 [Compound 38, (R)-3-(5-amino-1,3,4-thiadiazol-2-ylthio)-5,6,7-trifluoro-2-hydroxy-3,4-dihydro-2H-benzo[e][1,2]oxaborinine-8-carboxylic acid]	> 0.1 µM	X (Less than 0.1 μM)	> 1 µM	Y (0.1 μM to 1 μM)	< 0.1 µM	< 0.1 µM	> 0.1 µM	≥ 1 µM
COc1ccc2c(c1C(=O)O)OB(O)[C@@H](Sc1nnc(C(F)(F)F)n1N)C2 [Compound 64, (3R)-3-[[4-amino-5-(trifluoromethyl)-1,2,4-triazol-3-yl]sulfanyl]-2-hydroxy-7-methoxy-3,4-dihydro-1,2-benzoxaborinine-8-carboxylic acid]	> 0.1 µM	X (Less than 0.1 μM)	0.1 to 1 µM	Z (Greater than 1 μM)	< 0.1 µM	< 0.1 µM	> 0.1 µM	< 1 µM
O=C(O)c1c(F)ccc2c1OB(O)[C@@H](Sc1nnc(C(F)(F)F)s1)C2 [Compound 55, (3R)-7-fluoro-2-hydroxy-3-[[5-(trifluoromethyl)-1,3,4-thiadiazol-2-yl]sulfanyl]-3,4-dihydro-1,2-benzoxaborinine-8-carboxylic acid]	> 0.1 µM	Y (0.1 μM to 1 μM)	0.1 to 1 µM	Y (0.1 μM to 1 μM)	0.1 to 1 µM	< 0.1 µM	> 0.1 µM	≥ 1 µM
COc1ccc2c(c1C(=O)O)OB(O)[C@@H](Sc1nncn1CCCC(=O)O)C2 [Compound 41, (R)-3-(4-(3-carboxypropyl)-4H-1,2,4-triazol-3-ylthio)-2-hydroxy-7-methoxy-3,4-dihydro-2H-benzo[e][1,2]oxaborinine-8-carboxylic acid]	< 0.01 µM	X (Less than 0.1 μM)	< 0.1 µM	X (Less than 0.1 μM)	< 0.1 µM	< 0.1 µM	< 0.01 µM	< 1 µM
NCCOc1ccc2c(c1C(=O)O)OB(O)[C@@H](Sc1nnc(N)s1)C2 [Compound 79, (3R)-7-(2-aminoethoxy)-3-[(5-amino-1,3,4-thiadiazol-2-yl)sulfanyl]-2-hydroxy-3,4-dihydro-1,2-benzoxaborinine-8-carboxylic acid]	> 0.1 µM	X (Less than 0.1 μM)	> 1 µM	Y (0.1 μM to 1 μM)	< 0.1 µM	< 0.1 µM	> 0.1 µM	≥ 1 µM
COc1ccc2c(c1C(=O)O)OB(O)[C@@H](Sc1nnc(SCCCN)s1)C2 [Compound 113, (3R)-3-[[5-(3-aminopropylsulfanyl)-1,3,4-thiadiazol-2-yl]sulfanyl]-2-hydroxy-7-methoxy-3,4-dihydro-1,2-benzoxaborinine-8-carboxylic acid]	< 0.01 µM	X (Less than 0.1 μM)	< 0.1 µM	X (Less than 0.1 μM)	< 0.1 µM	< 0.1 µM	< 0.01 µM	< 1 µM
COc1c(F)cc2c(c1C(=O)O)OB(O)[C@@H](Sc1nnc(N)s1)C2 [Compound 114, (3R)-3-[(5-amino-1,3,4-thiadiazol-2-yl)sulfanyl]-6-fluoro-2-hydroxy-7-methoxy-3,4-dihydro-1,2-benzoxaborinine-8-carboxylic acid]	0.01 to 0.1 µM	X (Less than 0.1 μM)	0.1 to 1 µM	Y (0.1 μM to 1 μM)	< 0.1 µM	< 0.1 µM	0.01 to 0.1 µM	< 1 µM
